Patent US8673929B2, “4,6-di- and 2,4,6-trisubstituted quinazoline derivatives and pharmaceutical compositions useful for treating viral infections” (priority 2006, dated 2014)

Legend:
HCV replicon = assay: Anti-HCV replicon assay, EC50 (luciferase readout); assay type: cell-based; conditions: Huh-7 HCV replicon cells, 3 days incubation, luciferase luminescence
Summary of the method: (§1)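 Huh-7 cells harbouring an HCV replicon (6000/well) incubated 3 days at 37° C with 3-fold serially diluted compound (0.5% DMSO final where used). EC50 from luciferase luminescence of lysed cells; CC50 from CellTiter-Glo luminescence in parallel plates.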

Huh-7 HCV replicon cells = assay: CC50 assay in the anti-HCV replicon assay (CellTiter-Glo); assay type: cell-based, human; conditions: 3 days incubation, CellTiter-Glo luminescence
Summary of the method: as §1

[1] = as above; assay type: cell-based, human; conditions: human, Huh-7 hepatoma cells harbouring an HCV replicon; Huh-7 HCV replicon cells, 3 days incubation, CellTiter-Glo luminescence
Summary of the method: as §1

Row | Compound | EC50 (HCV replicon) | CC50 (Huh-7 HCV replicon cells) | EC50 (HCV replicon; Hepatitis C virus, 72 h) | CC50 at 3 days [1]
1 | CONC(=O)c1ccc(-c2ccc3nc(N)nc(OCC4CC4)c3c2)cc1 [Example 136] | 0.3 to 1 µM | 10 to 20 µM |  | 
2 | CCOc1nc(N)nc2ccc(-c3ccc(C(=O)N4CCCCC4)cc3)cc12 [Example 148, [4-(2-amino-4-ethoxy-quinazolin-6-yl)-pheny]-piperidin-1-yl-methanone] | 1 to 10 µM | > 20 µM |  | 
3 | CN(C)CCCOc1nc(N)nc2ccc(-c3ccc(C(F)(F)F)cc3C(F)(F)F)cc12 [Example 226, 6-(2,4-bis-trifluoromethyl-phenyl)-4-(3-dimethyl-aminopropoxy)-quinazolin-2-ylamine] | 1 to 10 µM | > 20 µM |  | 
4 | CN(C)CCCOc1nc(N)nc2ccc(-c3ccc(F)c(Cl)c3)cc12 [Example 228, 6-(3-Chloro-4-fluoro-phenyl)-4-(3-dimethyl-aminopropoxy)-quinazolin-2-ylamine] | 1 to 10 µM | > 20 µM |  | 
5 | CCOc1ncnc2ccc(-c3cn[nH]c3)cc12 [Example 247, 4-ethoxy-6-(1H-pyrazo-4-yl)-quinazoline] | 0.3 to 1 µM | > 20 µM |  | 
6 | CCOc1nc(NCc2ccc(S(N)(=O)=O)cc2)nc2ccc(-c3ccc(NC(=O)N4CCCC4)cc3)cc12 [Example 253, pyrrolidine-1-carboxylic acid {4-[4-ethoxy-2-(4-sulfamoyl-benzylamino)-quinazolin-6-yl]-phenyl}-amide] |  |  | < 0.3 µM | 10 to 20 µM
7 | CCOc1nc(NCc2ccc(S(N)(=O)=O)cc2)nc2ccc(-c3ccc(NC(N)=O)cc3)cc12 [Example 254, 4-{[4-ethoxy-6-(4-ureido-phenyl)-quinazolin-2-ylamino]-methyl}-benzenesulfonamide] |  |  | < 0.3 µM | < 10 µM
8 | CCOc1nc(NCc2ccc(S(N)(=O)=O)cc2)nc2ccc(-c3ccc(C(N)=O)cc3)cc12 [Example 255, 4-[4-Ethoxy-2-(4-sulfamoyl-benzylamino)-quinazolin-6-yl]-benzamide] |  |  | < 0.3 µM | < 10 µM
9 | CCOc1nc(NCc2ccc(S(N)(=O)=O)cc2)nc2ccc(-c3ccc(C(=O)NC4CC4)cc3)cc12 [Example 256, N-Cyclopropyl-4-[4-ethoxy-2-(4-sulfamoyl-benzylamino)-auinazolin-6-yl]-benzamide] | < 0.3 µM | < 10 µM |  | 
10 | CCCc1ncnc2ccc(-c3ccc(F)cc3)cc12 [Example 259, 6-(4-Fluoro-phenyl)-4-propyl-quinazoline] |  |  | 1 to 10 µM | > 20 µM
11 | (R)-4-[2-Amino-4-(tetrahydro-furan-3-yloxy)-quinazolin-6-yl]-N-[2-(1-methyl-pyrrolidin-2-yl)-ethyl]-benzamide [Example 221] | 0.3 to 1 µM | 10 to 20 µM |  | 
